Tested on: mutant AR-YFP
Assay: YFP fluorescence in reporter cell nuclei at saturating target hormone
Format: cell-based
Settings: absence of urine
Method: For example, YFP fluorescence measured in the cell nuclei of urine-treated reporter cells represents both the effects of target hormone-bound nuclear-translocated mutant AR-YFP, and also the independent effects of urine on the fluorescence properties of YFP. […] Because the effect varies among samples, two aliquots of each sample are required. […] A second sample aliquot is assayed using the methods of the invention. The correction factor is used to subtract the percentage increase from the YFP fluorescence signal measurement of the second aliquot. The corrected YFP fluorescence of the sample then is used to extrapolate the target hormone levels from a standard curve.

## C[C@]12CC[C@H]3[C@@H](CCC4=CC(=O)CC[C@@]43C)[C@@H]1CC[C@@H]2O [testosterone]
  saturating level (YFP fluorescence in nuclei reaches a maximum): about 10^−7 M
